Measurements taken from patent US20080261984A1, “Use of S,S-Reboxetine in the Treatment of Pain” (Pfizer Inc., priority 2004, published 2008).

Legend:
[1] = in vivo; cited from earlier work
anticholinergic binding = conditions: different animal models; cited from earlier work
monoamine oxidase (MAO) = conditions: cited from earlier work
[2] = treatment of pain in patients who do not respond to alpha-2-delta ligands such as gabapentin (PHN study); conditions: human, in vivo
Procedure: The following study is carried out to assess the efficacy of (S,S)-reboxetine in the treatment of patients with post-herpetic neuralgia (PHN) who fail to respond to gabapentin (GBP) treatment.
Study Population Male or female patients aged 18 years or older, with pain present more than 3 months after healing of the Herpes Zoster skin rash and who are also GBP treatment failures. No upper limit on the duration of PHN is imposed. GBP failures are defined as either: […]
Those patients who show no or minimal improvement on the Patient Global Impression of Change (PGIC) after treatment with GBP (1800 mg/day) administered for a period of […]
Those who are unable to tolerate doses of GBP less than or equal to 1800 mg/day.
Study Design Randomized, double-blind, placebo-controlled, 2-treatment (placebo and active), age-stratified study in patients aged 18 years or older, who suffer from PHN. The study is comprised of 3 phases: (i) 7-weeks screening including 4-weeks GBP treatment, (ii) 5-weeks randomized treatment, and (iii) 1-week follow-up period.
All patients who meet entry criteria initially enter a 1-week run-in period during which a daily pain diary will be maintained. Thereafter, if the severity of pain meets relevant criteria for inclusion in the study, patients enter a 4-week period during which they will receive GBP treatment. […]

dopamine reuptake = dopamine reuptake (Homo sapiens, UniProt Q01959); conditions: cited from earlier work
[3] = patients receiving gabapentin; cited from earlier work
[4] = in vivo; cited from earlier work; remark: listed apart in the source
norepinephrine reuptake = norepinephrine reuptake (Homo sapiens, UniProt P23975); conditions: cited from earlier work
norepinephrine reuptake, sequence (P23975 whole entry): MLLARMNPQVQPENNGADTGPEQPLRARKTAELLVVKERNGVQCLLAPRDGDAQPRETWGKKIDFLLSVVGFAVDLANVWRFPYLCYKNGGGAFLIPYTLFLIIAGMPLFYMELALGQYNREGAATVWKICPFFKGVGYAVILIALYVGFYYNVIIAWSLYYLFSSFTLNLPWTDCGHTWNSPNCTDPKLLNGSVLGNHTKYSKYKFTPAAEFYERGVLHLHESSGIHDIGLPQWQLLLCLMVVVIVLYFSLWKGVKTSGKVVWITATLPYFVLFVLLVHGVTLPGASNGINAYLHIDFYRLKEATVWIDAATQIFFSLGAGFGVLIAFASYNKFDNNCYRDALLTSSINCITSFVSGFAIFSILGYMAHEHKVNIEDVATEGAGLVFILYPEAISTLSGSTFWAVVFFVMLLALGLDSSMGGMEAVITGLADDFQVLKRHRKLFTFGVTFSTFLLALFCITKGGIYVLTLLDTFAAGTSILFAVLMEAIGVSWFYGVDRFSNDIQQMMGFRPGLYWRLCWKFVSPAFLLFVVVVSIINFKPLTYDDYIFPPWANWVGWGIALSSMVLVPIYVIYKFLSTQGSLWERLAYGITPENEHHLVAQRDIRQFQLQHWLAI

dopamine reuptake, sequence (Q01959 whole entry): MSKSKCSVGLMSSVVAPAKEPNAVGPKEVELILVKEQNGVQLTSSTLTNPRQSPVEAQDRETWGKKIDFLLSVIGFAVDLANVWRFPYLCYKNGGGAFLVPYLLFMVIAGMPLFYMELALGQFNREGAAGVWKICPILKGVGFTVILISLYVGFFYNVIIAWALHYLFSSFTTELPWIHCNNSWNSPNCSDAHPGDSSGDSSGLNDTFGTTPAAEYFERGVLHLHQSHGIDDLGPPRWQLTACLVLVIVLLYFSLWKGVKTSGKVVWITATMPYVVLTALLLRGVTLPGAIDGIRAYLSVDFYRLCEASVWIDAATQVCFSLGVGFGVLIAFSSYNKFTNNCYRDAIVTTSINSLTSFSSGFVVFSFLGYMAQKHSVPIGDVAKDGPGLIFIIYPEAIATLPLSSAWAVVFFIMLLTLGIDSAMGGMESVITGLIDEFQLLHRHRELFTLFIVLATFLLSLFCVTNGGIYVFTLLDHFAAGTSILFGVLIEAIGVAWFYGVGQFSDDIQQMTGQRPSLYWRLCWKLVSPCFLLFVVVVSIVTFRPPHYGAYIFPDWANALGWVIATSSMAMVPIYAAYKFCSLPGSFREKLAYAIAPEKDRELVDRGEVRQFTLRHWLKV

Structure (SMILES): CCOc1ccccc1OC(c1ccccc1)C1CNCCO1 (racemic) [reboxetine, (RR, SS)-2-[α-(2-ethoxyphenoxy)benzyl]morpholine]
- effect in the 8-OH-DPAT hypothermia test [1]: ineffective
- anticholinergic binding activity (anticholinergic binding): no anticholinergic binding activity
- monoamine oxidase (MAO) inhibitory activity (monoamine oxidase (MAO)): substantially devoid

Structure (SMILES): CCOc1ccccc1O[C@@H](c1ccccc1)[C@@H]1CNCCO1 [(S,S)-reboxetine]
- efficacy in treating pain in patients who do not respond to alpha-2-delta ligands [2]: efficacious
- dopamine reuptake inhibitory activity (dopamine reuptake): no

Structure (SMILES): NCC1(CC(=O)O)CCCCC1 [gabapentin, 1-(aminomethyl)-cyclohexylacetic acid]
- patients noting at least a moderate improvement (score of 1 or 2) on the Patient Global Impression of Change [3]: Approximately 60%
- efficacy in the treatment of painful diabetic neuropathy [4]: efficacious

Structure (SMILES): COc1ccc(C(CN(C)C)C2(O)CCCCC2)cc1 (stereo not drawn) [venlafaxine]
- norepinephrine reuptake inhibitory activity (norepinephrine reuptake): potent inhibitor
- dopamine reuptake inhibitory activity (dopamine reuptake): weak inhibitor
